Our source for the kcat values is patent US5906930A, “Para-nitrobenzyl esterases with enhanced activity in aqueous and nonaqueous media” (California Institute of Technology, priority 1998, dated 1999).

Common to all, as to experiment: Kinetic assays of purified pNB esterase (ester hydrolysis)
Assay type in all cases: biochemical
Holding throughout (conditions): 0.1M PIPES pH 7.0, 30° C.

For experiment [1], the target named is T1, Bacillus subtilis para-nitrobenzyl esterase variant 2-19E10 (1-1H9 substitutions + M358V), SEQ. ID. NO. 6 (Bacillus subtilis, UniProt P37967, H322R/M358V/Y370F).
T1 sequence (P37967 1-489 K23L/S59P/K95Q/N150D/S230A/G242S/K246R/S251A/A291S/H322R/V343A/M358V/Y370F/K390E/L463V): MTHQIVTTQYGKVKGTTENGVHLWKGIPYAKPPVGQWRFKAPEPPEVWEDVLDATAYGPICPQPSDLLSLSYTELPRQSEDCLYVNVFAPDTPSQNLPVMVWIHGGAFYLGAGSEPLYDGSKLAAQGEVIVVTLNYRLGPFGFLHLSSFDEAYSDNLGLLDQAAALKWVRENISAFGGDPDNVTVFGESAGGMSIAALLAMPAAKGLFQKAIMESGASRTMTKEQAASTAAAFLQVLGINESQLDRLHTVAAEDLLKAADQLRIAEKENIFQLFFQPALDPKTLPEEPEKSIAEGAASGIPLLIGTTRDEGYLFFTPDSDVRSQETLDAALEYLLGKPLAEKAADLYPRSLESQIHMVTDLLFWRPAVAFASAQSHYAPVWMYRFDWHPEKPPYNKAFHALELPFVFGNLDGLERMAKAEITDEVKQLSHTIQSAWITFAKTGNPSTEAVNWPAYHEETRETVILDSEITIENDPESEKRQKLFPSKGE
On the set-up: unit not given beside the values. The protocol: (§1) Bacteria expressing seven pNB esterases, 0-WT (SEQ. ID. NO. 2), 1-1H9, 2-19E10, 3-10C4, 4-38B9, 4-43E7, and 4-54B9, were grown in one liter cultures and the enzymes were purified. These purified enzymes were assayed for their ability to hydrolyze the different ester substrates in the presence of various concentrations of DMF. FIGS. 8a, b and c show the specific reaction rates on pNPA as a function of pNPA substrate concentration for this series of evolved variants from the four generations of mutagenesis and screening. […] The wild type enzyme outperforms 1-1H9 in purely aqueous buffer (FIG. 8a). The actual screening, however, was performed in the presence of DMF, and in 15 and 30% DMF, 1-1H9 has higher specific activity towards pNPA than wild type (FIGS. 8b and 8c). Similar trends are seen for the remaining variants assayed on this substrate. […] In 30% DMF, wild type drops still further relative to the pNB esterase variants. Variants 4-38B9 and 4-43E7, presumably by, virtue of having been screened in DMF for four rounds of mutagenesis, are the best performers in 30% DMF.
(§2) DMF dramatically increases KM while also decreasing kcat. For the LCN substrates, the mutations accumulated during directed evolution mitigate the increased KM. The effects on kcat, however, are more prominent: kcat increases more than 9-fold from wild type to 4-54B9 in 15% DMF, while KM decreases by less than a factor of two on LCN-pNB. […] At substrate concentrations […], increased specific activity will result mainly from improvements in kcat. These improvements are obviously the most useful for enzymes intended to be used for transformations in high substrate concentrations.
(§3) Kinetic assays were performed on three substrates: pNPA, LCN-pNP, and p-nitrobenzyl loracarbef nucleus (LCN-pNB). For pNPA and LCN-pNP substrates, final concentrations varying from 0.0625 mM to 16 mM and 0, 15, and 30% DMF in 0.1M PIPES (Sigma), pH 7.0 were combined with equal volumes of enzyme samples. These samples were mixed simultaneously in a 96 well plate and monitored with the 96 well plate reader. The absorbance values were recorded, linearly regressed, and then used for calculating kinetic parameters. For the LCN-pNB substrate, final concentrations varying from 0.0156 mM to 8.0 mM and 0, 15 and 30% DMF in PIPES, pH 7.0 were combined with enzyme samples in a quartz cuvette and were measured in a spectrophotometer at 289 nm. All assays were measured in triplicate.

The target in experiment [2] is T2, Bacillus subtilis para-nitrobenzyl esterase variant 4-54B9 (3-10C4 substitutions + L334S and one further substitution), SEQ. ID. NO. 14 (Bacillus subtilis, UniProt P37967, H322R/K267R/L144M/L334S/M358V/Y370F).
T2 sequence (P37967 1-489 K23L/S59P/K95Q/L144M/N150D/S230A/G242S/K246R/S251A/K267R/A291S/H322R/L334S/V343A/M358V/Y370F/K390E/L463V): T1 sequence (P37967 1-489 K23L/S59P/K95Q/N150D/S230A/G242S/K246R/S251A/A291S/H322R/V343A/M358V/Y370F/K390E/L463V) with L144M, K267R, L334S
The arrangement: unit not given beside the values. The protocol:
as §1, §2, §3

Experiment [3] deals with T3, Bacillus subtilis para-nitrobenzyl esterase variant 3-10C4 (2-19E10 substitutions + L144M), SEQ. ID. NO. 8 (Bacillus subtilis, UniProt P37967, H322R/L144M/M358V/Y370F).
T3 sequence (P37967 1-489 K23L/S59P/K95Q/L144M/N150D/S230A/G242S/K246R/S251A/A291S/H322R/V343A/M358V/Y370F/K390E/L463V): T1 sequence (P37967 1-489 K23L/S59P/K95Q/N150D/S230A/G242S/K246R/S251A/A291S/H322R/V343A/M358V/Y370F/K390E/L463V) with L144M
The protocol:
as §1, §2, §3

The mark [4] stands for this setting: substrate p-nitrophenyl loracarbef nucleus, 0% DMF.
Setting [5] is: substrate p-nitrophenyl loracarbef nucleus, 15% DMF.
The mark [6] stands for this setting: substrate p-nitrophenyl loracarbef nucleus, 30% DMF.
The mark [7] stands for this setting: substrate p-nitrobenzyl loracarbef nucleus, 0% DMF.
Setting [8] is: substrate p-nitrobenzyl loracarbef nucleus, 15% DMF.

The structures appear in SMILES notation. Substitutions are numbered along the chain they refer to.

On to `NC1C(=O)N2C(C(=O)Oc3ccc([N+](=O)[O-])cc3)=C(Cl)CCC12` (stereo not drawn) [p-nitrophenyl loracarbef nucleus], for which the kcat is on record as 0.25 in experiment [1] (setting [4]); 0.12 in experiment [1] (setting [5]); 0.023 in experiment [1] (setting [6]); 1.44 in experiment [2] (setting [4]); 0.93 in experiment [2] (setting [5]); 0.141 in experiment [2] (setting [6]). The kcat is 0.35 in experiment [3] (setting [4]), 0.21 in experiment [3] (setting [5]) and 0.044 in experiment [3] (setting [6]).

Take `NC1C(=O)N2C(C(=O)OCc3ccc([N+](=O)[O-])cc3)=C(Cl)CCC12` (stereo not drawn) [p-nitrobenzyl loracarbef nucleus]: the kcat in experiment [1] (setting [7]) stood at 4.59; in experiment [1] (setting [8]), 1.81; in experiment [2] (setting [7]), 18.96; in experiment [2] (setting [8]), 6.84; in experiment [3] (setting [7]), 6.53; in experiment [3] (setting [8]) it was 1.62.
